Measured values from patent US9233096B2, “Method of providing an anti-ulcer treatment with extracts and isolated flavonoids from Euphorbia cuneata” (King Saud University, priority 2011, dated 2016).

Tested on: ethanol-induced gastric ulceration in male Wister rats
Assay: Antiulcerogenic activity, ethanol-induced gastric ulcer model
Format: in vivo
Conditions: 100 mg/kg orally; for Antiulcerogenic activity (in words): isolated compounds compared with reference drugs at 100 mg/kg; for No. of ulcers: three doses before ethanol 50% 10 ml/kg, mean ± SD, n = 6; for Curative ratio: versus ethanol control
Method: The antiulcerogenic activity of the total alcohol extract of Euphorbia cuneata was studied using ethanol-induced ulcer model at doses of 125, 250 and 500 mg/kg. […] The antioxidant properties to the total alcohol extract and the isolated compounds were evaluated using DPPH radical scavenging activity test. The liver and kidney functions were studied.
Male Wister rats (180-200 g) were used. […] Animals were divided into groups each of 6 rats and starved for 48 h before use to ensure an empty stomach. To avoid dehydration during the period of fasting, rats were supplied with sucrose (BDH) 8% (w/v) solution in NaCl (BDH) 0.2% (w/v), which was removed one hour before experimentation. The 1st group was kept as a normal control, while the 2nd one was kept as a positive control. Groups 3rd to 5th received the alcohol extract of E. cuneata in doses of 125, 250 and 500 mg/kg orally. […] The last three groups of rats were given ranitidine, apigenin and naringin orally as reference drugs in a dose of 100 mg/kg.
Two doses were given in the first day at 08:00 and 16:00 clock; a third dose was given on the second day 1.5 h before induction of gastric ulceration. All rats except the normal control were given ethanol (Merck) 50% (v/v) (in distilled water) in a dose of 10 ml/kg orally to induce gastric ulceration. Normal control rats received equivolumes of distilled water only at the same time intervals. One hour after ethanol administration, all rats were killed by an overdose of chloroform and the stomachs were rapidly removed, opened along their greater curvature and gently rinsed under running tap water. Lesions in the glandular part of the stomach were measured under an illuminated magnifying microscope (10×). Long lesions were counted and their lengths were measured. Petechial lesions were counted, and then each five petechial lesions were taken as 1 mm of ulcer. To calculate the ulcer index (mm), the sum of the total length of long ulcers and petechial lesions in each group of rats was divided by its number. The curative ratio was determined according to the formula: […]
The results obtained were statistically analyzed using “t” test.

Aromadendrin (2,3-dihydro-kaempferol) was tested, and the “Antiulcerogenic activity (in words)” value was “as effective as naringin, apigenin and ranitidine”, the No. of ulcers was 3.558 ± 0.640 and the Curative ratio was 79.10.

`C[C@@H]1O[C@@H](O[C@H]2[C@H](Oc3cc(O)c4c(c3)O[C@H](c3ccc(O)cc3)CC4=O)O[C@H](CO)[C@@H](O)[C@@H]2O)[C@H](O)[C@H](O)[C@H]1O` [Naringin] showed a No. of ulcers of 3.167 ± 0.872 and a Curative ratio of 81.40.

With `COc1ccc(-c2cc(=O)c3c(O)cc(O[C@@H]4O[C@H](CO[C@@H]5O[C@@H](C)[C@H](O)[C@@H](O)[C@H]5O)[C@@H](O)[C@H](O)[C@H]4O)cc3o2)cc1O` [4′-O-methoxy-luteolin-7-O-rhamnoglucoside] the “Antiulcerogenic activity (in words)” value was “most effective”, the No. of ulcers was 2.003 ± 0.072 and the Curative ratio was 88.23.

For `CNC(=C[N+](=O)[O-])NCCSCc1ccc(CN(C)C)o1` [Rantidine], the No. of ulcers was 3.200 ± 0.800 and the Curative ratio was 81.20.

For `O=c1cc(-c2ccc(O)cc2)oc2cc(O)cc(O)c12` [Apigenin], the No. of ulcers was 4.122 ± 0.432 and the Curative ratio was 75.78.
